Source: US20220289794A1, “SYNTHETIC ANTIMICROBIAL PEPTIDES” (priority 2019, published 2022)

How the values were obtained:
B. cereus (ATCC-13061) = experiment: Broad-spectrum activity against Gram-Positive bacteria (MIC); assay type: cell-based; design: unit not given here
S. aureus ATCC 29213 = settings: S. aureus ATCC 29213
[1] = system: Pseudomonas aeruginosa (ATCC 27883); settings: P. aeruginosa ATCC 27883
[2] = system: Enterococcus faecalis ATCC 51575; settings: E. faecalis ATCC 51575
[3] = system: Methicillin-resistant Staphylococcus aureus MRSA (ATCC BAA-1556); settings: MRSA ATCC BAA-1556
[4] = system: Klebsiella pneumoniae (ATCC BAA-1705); settings: Table 16, Gram-negative panel
[5] = system: Enterococcus faecium ATCC 27270; settings: E. faecium ATCC 27270
[6] = system: Enterococcus faecalis ATCC 29212; settings: E. faecalis ATCC 29212
E. coli (ATCC BAA-2452) = experiment: Broad-spectrum activity against Gram-Negative bacteria (MIC); assay type: cell-based; settings: Table 16, Gram-negative panel
[7] = system: Streptococcus pneumoniae ATCC 51938; settings: S. pneumoniae ATCC 51938
B. subtilis (ATCC-6633) = experiment: Broad-spectrum activity against Gram-Positive bacteria (MIC); assay type: cell-based; design: unit not given here
[8] = system: Klebsiella pneumoniae ATCC 13883; settings: Table 16, Gram-negative panel
[9] = system: Streptococcus pneumoniae ATCC 49619; settings: S. pneumoniae ATCC 49619
[10] = system: Enterococcus faecium ATCC 700221; settings: E. faecium ATCC 700221
[11] = system: A. baumannii (ATCC BAA-1605); experiment: Broad-spectrum activity against Gram-Negative bacteria (MIC); assay type: cell-based; settings: Table 16, Gram-negative panel
[12] = system: P. aeruginosa (ATCC 10145); experiment: as above; assay type: cell-based; settings: Table 16, Gram-negative panel
[13] = system: P. aeruginosa (ATCC BAA-1744); experiment: as above; assay type: cell-based; settings: Table 16, Gram-negative panel
[14] = system: Escherichia coli (ATCC 25922); settings: E. coli ATCC 25922

Substance | Broad-spectrum activity B. cereus (ATCC-13061) (B. cereus (ATCC-13061)) | MIC S. aureus ATCC 29213 (S. aureus ATCC 29213) [µg/mL] | MIC P. aeruginosa ATCC 27883 [1] [µg/mL] | Broad-spectrum activity E. faecalis (ATCC 51575) [2] | MIC MRSA ATCC BAA-1556 [3] [µg/mL] | MIC K. pneumonia (ATCC BAA-1705) [4] [µg/mL] | Broad-spectrum activity E. faecium (ATCC 27270) [5] | Broad-spectrum activity E. faecalis (ATCC 29212) [6] | MIC E. coli (ATCC BAA-2452) (E. coli (ATCC BAA-2452)) [µg/mL] | Broad-spectrum activity S. pneumoniae (ATCC 51938) [7] | Broad-spectrum activity B. subtilis (ATCC-6633) (B. subtilis (ATCC-6633)) | MIC K. pneumonia (ATCC 13883) [8] [µg/mL] | Broad-spectrum activity S. pneumoniae (ATCC 49619) [9] | Broad-spectrum activity E. faecium (ATCC 700221) [10] | MIC A. baumannii (ATCC BAA-1605) [11] [µg/mL] | MIC P. aeruginosa (ATCC 10145) [12] [µg/mL] | MIC P. aeruginosa (ATCC BAA-1744) [13] [µg/mL] | MIC E. coli ATCC 25922 [14] [µg/mL]
c[Arg-Arg-Arg-arg-Dip-Dip-Dip] [IFX-063] | 3.1 | 3.1 | 12.5 | 12.5 | 3.1 | 12.5 | 3.1 | 6.2 | 12.5 | 12.5 | 1.5 | 50 | 25 | 1.5 | 6.2 | 25 | 25 | 12.5
c[Arg-Arg-Arg-arg-Dip-Trp-Dip] [IFX-091] | 3.1 | 3.1 | 12.5 | 12.5 | 3.1 | 12.5 | 3.1 | 6.2 | 12.5 | 12.5 | 1.5 | 50 | 50 | 6.2 | 12.5 | 25 | 25 | 12.5
c[Arg-Arg-arg-Arg-Dip-Dip-Dip] [IFX-064] | 3.1 | 3.1 | 12.5 | 12.5 | 3.1 | 12.5 | 3.1 | 6.2 | 6.2 | 25 | 1.5 | 50 | 50 | 1.5 | 6.2 | 25 | 25 | 12.5
c[Arg-Arg-arg-Arg-Dip-Trp-Dip] [IFX-092] | 6.2 | 3.1 | 12.5 | 12.5 | 3.1 | 25 | 6.2 | 12.5 | 12.5 | 25 | 1.5 | 50 | 50 | 12.5 | 12.5 | 25 | 25 | 25
c[Arg-Arg-arg-arg-NaI-trp-NaI] [IFX-139] | 3.1 | 3.1 | 32 | 6.2 | 3.1 | 25 | 3.1 | 6.2 | 25 | 12.5 | 1.5 | > 50 | 25 | 6.2 | 12.5 | 50 | 50 | 32
c[Arg-Arg-arg-arg-naI-trp-naI] [IFX-137] | 3.1 | 3.1 | 32 | 6.2 | 3.1 | 50 | 3.1 | 6.2 | 25 | 12.5 | 1.5 | 50 | 25 | 3.1 | 12.5 | 25 | 25 | 16
c[Arg-arg-Arg-Arg-Dip-Dip-Dip] [IFX-065] | 3.1 | 3.1 | 12.5 | 12.5 | 1.5 | 12.5 | 3.1 | 6.2 | 6.2 | 12.5 | 1.5 | 50 | 25 | 3.1 | 6.2 | 12.5 | 12.5 | 12.5
c[Arg-arg-Arg-Arg-Dip-Trp-Dip] [IFX-093] | 6.2 | 3.1 | 12.5 | 12.5 | 3.1 | 12.5 | 6.2 | 12.5 | 6.2 | 25 | 1.5 | 50 | 50 | 6.2 | 12.5 | 25 | 25 | 12.5
c[Arg-arg-Arg-arg-dip-Trp-dip] [IFX-097] | 6.2 | 3.1 | 12.5 | 12.5 | 3.1 | 25 | 3.1 | 6.2 | 25 | 25 | 1.5 | > 50 | 50 | 6.2 | 12.5 | 50 | 50 | 12.5
